Assay results reported in the supplement of paper PMC10307832.

How the values were obtained:
Experiment in all cases: relative viability (nuclei count vs DMSO), 5 days (fraction); higher = more cells survive
NCI-H2023 = system: NCI-H2023
In short: (§1)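 Lung cancer cell lines were pin-tool dosed in 1536-well plates on the day after seeding, with either a lone drug or a fixed anchor-drug dose plus five library-drug doses (not always all listed) in √10 steps. Nuclei were counted on 4× images after 5 days. Relative viability is the ratio of treated-well to vehicle-well nuclei counts, with each value a median of duplicate plates.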

HCC-827 = system: HCC-827
In short: as §1

A-427 = system: A-427
In short: as §1

SW 1573 = system: SW 1573
In short: as §1

NCI-H1993 = system: NCI-H1993
In short: as §1

NCI-H2087 = system: NCI-H2087
In short: as §1

H3255 = system: H3255
In short: as §1

NCI-H1792 = system: NCI-H1792
In short: as §1

NCI-H2170 = system: NCI-H2170
In short: as §1

NCI-H1944 = system: NCI-H1944
In short: as §1

Compound Cc1csc(=NC2CCCCC2)n1/N=C/c1ccc(O)c(O)c1O [MIM1] + CC1(C)CCC(c2ccc(Cl)cc2)=C(CN2CCN(c3ccc(C(=O)NS(=O)(=O)c4ccc(N[C@H](CCN5CCOCC5)CSc5ccccc5)c(S(=O)(=O)C(F)(F)F)c4)cc3)CC2)C1 [Navitoclax] (partner 0.5 µM) has a relative viability (NCI-H2023; first compound 2 µM) of 0.91, a relative viability (NCI-H2023; first compound 6.325 µM) of 0.683 and a relative viability (NCI-H2023; first compound 20 µM) of 0.432. For the same compound, the relative viability (HCC-827; first compound 0.2 µM) was 0.961, the relative viability (HCC-827; first compound 0.6325 µM) was 1.01 and the relative viability (HCC-827; first compound 2 µM) was 0.977. The relative viability (HCC-827; first compound 6.325 µM) was 0.39, the relative viability (HCC-827; first compound 20 µM) was 0.696 and the relative viability (A-427; first compound 0.2 µM) was 0.972. For the same compound, the relative viability (A-427; first compound 0.6325 µM) was 1.02, the relative viability (A-427; first compound 2 µM) was 0.981 and the relative viability (A-427; first compound 6.325 µM) was 0.986. The relative viability (A-427; first compound 20 µM) was 0.555, the relative viability (SW 1573; first compound 0.2 µM) was 0.973 and the relative viability (SW 1573; first compound 0.6325 µM) was 0.967. For the same compound, the relative viability (SW 1573; first compound 2 µM) was 1.08, the relative viability (SW 1573; first compound 6.325 µM) was 0.909 and the relative viability (SW 1573; first compound 20 µM) was 0.549. It also gave a relative viability (NCI-H1993; first compound 0.2 µM) of 0.911, a relative viability (NCI-H1993; first compound 0.6325 µM) of 0.951 and a relative viability (NCI-H1993; first compound 2 µM) of 0.854. It also gave a relative viability (NCI-H1993; first compound 6.325 µM) of 0.822, a relative viability (NCI-H1993; first compound 20 µM) of 0.425 and a relative viability (NCI-H2087; first compound 0.2 µM) of 1.05. For the same compound, the relative viability (NCI-H2087; first compound 0.6325 µM) was 0.921, the relative viability (NCI-H2087; first compound 2 µM) was 1.03 and the relative viability (NCI-H2087; first compound 6.325 µM) was 0.928. It also gave a relative viability (NCI-H2087; first compound 20 µM) of 0.382, a relative viability (H3255; first compound 0.2 µM) of 0.561 and a relative viability (H3255; first compound 0.6325 µM) of 0.557. For the same compound, the relative viability (H3255; first compound 2 µM) was 0.467, the relative viability (H3255; first compound 6.325 µM) was 0.413 and the relative viability (H3255; first compound 20 µM) was 0.198. For the same compound, the relative viability (NCI-H1792; first compound 0.2 µM) was 0.59, the relative viability (NCI-H1792; first compound 0.6325 µM) was 0.484 and the relative viability (NCI-H1792; first compound 2 µM) was 0.559. It also gave a relative viability (NCI-H1792; first compound 6.325 µM) of 0.501, a relative viability (NCI-H1792; first compound 20 µM) of 0.245 and a relative viability (NCI-H2170; first compound 0.2 µM) of 0.571. It also gave a relative viability (NCI-H2170; first compound 0.6325 µM) of 0.636, a relative viability (NCI-H2170; first compound 2 µM) of 0.549 and a relative viability (NCI-H2170; first compound 6.325 µM) of 0.468. The relative viability (NCI-H2170; first compound 20 µM) was 0.298, the relative viability (NCI-H1944; first compound 0.2 µM) was 0.985 and the relative viability (NCI-H1944; first compound 0.6325 µM) was 1.04. It also gave a relative viability (NCI-H1944; first compound 2 µM) of 0.845, a relative viability (NCI-H1944; first compound 6.325 µM) of 0.938 and a relative viability (NCI-H1944; first compound 20 µM) of 1.11.
